In BindingDB's records for PubMed 37122539 (Virginia Tech, 2023) one finds IC50 data, which are given here for ten compounds.

In brackets after ≈: the same amount, converted by molar mass.

The test system of the experiment is Enterococcus faecalis. The experiment is described as follows: Antibacterial activity against Enterococcus faecalis ATCC 29212 incubated for 16 hrs by broth microdilution method. In general terms: In broth dilution the organism is exposed to a series of concentrations in liquid medium.

A word on the IC50: it is the midpoint of a concentration-inhibition curve. Read a low IC50 as higher potency.

In the case of `CN(CC[C@H](N)CC(=O)N[C@H]1C=C[C@H](n2ccc(N)nc2=O)O[C@@H]1C(=O)OCCc1ccccc1)C(=N)N`, the 50% inhibitory concentration (IC50) was 6.9 µg/mL (≈ 13.1 µM).
`CCCCCCOC(=O)[C@H]1O[C@@H](n2ccc(N)nc2=O)C=C[C@@H]1NC(=O)C[C@@H](N)CCN(C)C(=N)N`: the 50% inhibitory concentration (IC50) stood at 11 µg/mL (≈ 21.7 µM).
For `CN(CC[C@H](N)CC(=O)N[C@H]1C=C[C@H](n2ccc(N)nc2=O)O[C@@H]1C(N)=O)C(=N)N` the value was 13 µg/mL (≈ 30.8 µM).
Regarding `CCOC(=O)[C@H]1O[C@@H](n2ccc(N)nc2=O)C=C[C@@H]1NC(=O)C[C@@H](N)CCN(C)C(=N)N`, half-maximal inhibition (IC50) required 9.9 µg/mL (≈ 22 µM).
Compound `CCCOC(=O)[C@H]1O[C@@H](n2ccc(N)nc2=O)C=C[C@@H]1NC(=O)C[C@@H](N)CCN(C)C(=N)N` registered an IC50 of 11 µg/mL (≈ 23.7 µM).
For `C#CCCCOC(=O)[C@H]1O[C@@H](n2ccc(N)nc2=O)C=C[C@@H]1NC(=O)C[C@@H](N)CCN(C)C(=N)N` the value was 12 µg/mL (≈ 24.6 µM); for `CN(CC[C@H](N)CC(=O)N[C@H]1C=C[C@H](n2ccc(N)nc2=O)O[C@@H]1C(=O)O)C(=N)N`, 53 µg/mL (≈ 125 µM).
On to `CN(CC[C@H](N)CC(=O)N[C@H]1C=C[C@H](n2ccc(N)nc2=O)O[C@@H]1C(=O)OCc1ccccc1)C(=N)N`, for which inhibition was half-maximal at 15 µg/mL (≈ 29.3 µM) (IC50).
In turn, `COC(=O)[C@H]1O[C@@H](n2ccc(N)nc2=O)C=C[C@@H]1NC(=O)C[C@@H](N)CCN(C)C(=N)N` gave a half-inhibitory concentration (IC50) of 9.2 µg/mL (≈ 21.1 µM).
`CCCCOC(=O)[C@H]1O[C@@H](n2ccc(N)nc2=O)C=C[C@@H]1NC(=O)C[C@@H](N)CCN(C)C(=N)N` came in with a 50% inhibitory concentration (IC50) of 16 µg/mL (≈ 33.4 µM).
